Test results as given in patent US8148392B2, “2-indolyl imidazo [4,5-d] phenanthroline derivatives and their use in the treatment of cancer” (Lorus Therapeutics Inc., priority 2005, dated 2012).
Where two headings read alike, the source gives them in different places.

Columns and labels:
[1] = test system: normal cell lines PrEC, HMEC, WI38 and cancer cell lines DU145, MDA-MB-435, HT-29; assay: Cancer cell selectivity, IC90 in normal versus cancer cell lines (XTT); type: cell-based, human; conditions: average IC90 of all normal / average IC90 of all cancer cell lines, 6 to 7 days
Text: An exemplary method of assessing the differential sensitivity between normal and cancer cells for a compound has been described by Vassilev et al. (Anti-Cancer Drug Design (2001) 16:7). This method involves the comparison of IC90 values, i.e. the molar concentration of a test compound required to cause 90% growth inhibition of exponentially growing cells. Thus, the IC90 values for candidate compounds can be evaluated in various cancer cell lines (such as those outlined above) and normal cells (such as HUVEC and/or WI38 cells) and compared. IC90 values can be measured using a variety of standard techniques as known in the art. Cancer cell selectivity is calculated as a ratio between the average IC90 for all normal cell lines and the average IC90 for all cancer cell lines. Compounds with an IC90 ratio (normal/cancer) of >4 are considered to be selective for cancer cells (L. T. Vassilev et al., Anti-cancer Drug Design, 2001, 16: 7-17).
The normal cells lines used were PrEC (prostate), HMEC (breast), and WI38 (lung fibroblast) cell lines and the cancer cells lines were DU145 (prostate), MDA-MB-435 (breast), HT-29 (colon). IC90 values were also determined for the controls doxorubicin and etoposide. The cells were cultured as generally described in Example 13. Various concentrations of the compounds were incubated with the cells for 6 to 7 days, and the number of proliferating cells was measured using the XTT assay. Cancer cell selectivity was calculated as a ratio between the average IC90 for all normal and the average IC90 for all cancer cell lines.

[2] = test system: human colon carcinoma HT-29 cells; assay: XTT cell proliferation assay, HT-29; type: cell-based; conditions: Homo sapiens, HT-29, XTT, read-out: IC50
Protocol: The ability of compounds of Formula I to inhibit the proliferation of human colon carcinoma HT-29 cells was tested as follows. HT-29 colon carcinoma cells used in this example and subsequent examples were maintained as a monolayer in a growth medium; McCoy's 5A modified medium (Sigma, St. Louis, Mo.), supplemented with 2 mM L-glutamine (Gibco, Grand Island, N.Y.), 10% fetal bovine serum (FBS) (Multicell, WISENT Inc. St-Bruno, QC), antibiotic-antimycotic (Multicell), at 37° C. in a 5% CO2-humidified incubator. Cells were transferred onto 150 mm tissue culture plates and grown until sub-confluency (70-80%) prior to their use. The in vitro antiproliferative activity of compounds was evaluated by incubating the cells with varying concentrations of the compounds as shown in Table 1 for 6-7 days. The efficacy of these compounds in this cell proliferation assay was measured based in the ability of live cells to reduce the tetrazolium salt XTT to orange colored compounds of formazan (XTT cell proliferation kit II, Roche Applied Science, Montreal, QC).
The ability of compounds of Formula I to inhibit the proliferation of human colon carcinoma HT-29 cells was tested as described above in Example 13.
Cell growth inhibition IC50 (μM) by compounds of Formula I was tested on various cancer cell types by XTT cell proliferation assay. The growth inhibitory effects of the compounds of Formula I as shown below for the melanoma cell line SK-MEL-2 were reproducible by Lorus Therapeutics Inc.

[3] = type: in vivo; conditions: i.p. twice per day for 1 week
Protocol: To test the sub-acute toxicity of the compounds of Formula I, female mice were injected with the compounds and toxicity was evaluated based on mortality, changes in behaviour, appearance and weight. Briefly, ICR normal female mice (5-6 weeks old; n=33) weighing about 0.020 kg in body weight, were injected with various compounds at 100 mg/kg and 50 mg/kg or with the vehicle alone (Lutrol (M68, micronized)). Groups of 3 ICR female mice were injected with one intra-peritoneal (i.p.) injection of 250 μl of each compound at 4.0 mg/ml twice per day (100 mg/kg) for 1 week (Group I); or with one intra-peritoneal (i.p.) injection of 250 μl of each compound at 2.0 mg/ml twice per day (50 mg/kg) for 1 week (Group II), or with one intra-peritoneal (i.p.) injection of 250 μl of lutrol vehicle control twice per day for 1 week (Control Group).
The compounds to be tested were prepared to provide enough for one week at concentrations of 4.0 mg/ml and 2.0 mg/ml. Briefly, 50 mg of each compound was dissolved in 1.25 ml of 100% DMSO and diluted with 6.25 ml of Lutrol (30% in water) and 5 ml water, to prepare a solution of 4 mg/ml compound in 15% Lutrol in water. Next, 4 ml of each prepared solution was further diluted with 4 ml of 15% Lutrol in water to provide the 2.0 mg/ml solution of each compound. For the vehicle control solution, 8 ml of 15% Lutrol in water was prepared. Compounds at concentrations of 4.0 mg/ml and 2.0 mg/ml and the vehicle control were administered as described above.

supercoiled plasmid DNA = assay: In vitro DNA cleavage assay; type: biochemical; conditions: 25 μM compound, 10 μM CuSO4, 100 μM ascorbic acid, 37° C., 30 minutes
Protocol: Compound 3 was tested for its ability to cleave plasmid DNA in vitro in the presence of copper and the reducing agent ascorbic acid. Experiments were performed in a total of 20 μl, containing 10 mM NaH2PO4/Na2HPO4 buffer (pH 6.7), 1 μg of supercoiled plasmid DNA, 100 μM ascorbic acid, 25 μM drug compound (or vehicle), and 10 μM of CuSO4.5H20. The reaction mixture was incubated at 37° C. for 30 minutes, and 1 μl of 0.1 M EDTA was added to terminate the reaction. DNA loading buffer was added, and reactions were run at 80V for 80 minutes on a 1% agarose gel containing ethidium bromide.
To determine whether ions other than copper could suffice, DNA cleavage reactions were also carried out in the presence of zinc or iron. Reactions were performed as above, in the presence of 25 μM of CuSO4.5H20, ZnCl2, or FeCl2.4H20. […] Note that copper alone in the presence of ascorbic acid can shift the ratio of supercoiled DNA to open circular DNA.
To determine the ratios of compound to copper at which compound 3 was effective, reactions were performed as in FIG. 22A. The ratios of compound 3 to copper of 3:1, 2.5:1, 2:1, 1.5:1, and 1:1, as shown in FIG. 23 were achieved by maintaining the concentration of Cu constant at 10 μM, and varying the concentration of compound 3. The ratios of compound 3 to Cu of 1:1.5, 1:2, 1:2.5, and 1:3, were achieved by maintaining the concentration of compound 3 constant at 10 μM, and varying the concentration of copper.
Other compounds of Formula I, compounds 5, 7, 9 and 13 were also tested for their ability to cleave DNA at a ratio of 2.5:1 to copper (FIG. 23). Ratios of compound 3:copper as indicated, plus concentrations of copper in the absence of compound 3 were used in the DNA cleavage assay as described above.

c1ccc(-c2[nH]c3ccccc3c2-c2nc3c4cccnc4c4ncccc4c3[nH]2)cc1 [Compound 9]
Normal/cancer IC90 ratio [1]: >5.6 | IC50 ([2]; 6-7 days, Table 3): 300 nM | IC50 ([2]; as Example 13, Table 7): 0.3 µg/mL | Sub-acute toxicity ([3]; 50 mg/Kg): − | Sub-acute toxicity ([3]; 100 mg/Kg): + | cleavage of plasmid DNA (supercoiled plasmid DNA): capable of cleaving DNA
